Assay results from patent US20240050440A1, “THERAPEUTIC TARGETS AND AGENTS FOR THE TREATMENT OF TRIOSEPHOSPHATE ISOMERASE (TPI) DEFICIENCY” (University of Pittsburgh- Of The Commonwealth System of …, priority 2020, published 2024).
Where a SMILES comes first, the peptide text is derived from it. The star is where a group is joined. Cbz = O=C(OCc1ccccc1)*

Assays:
[1] = system: TPI^sugarkill; assay: Isolation and visualization of poly-ubiquitinated TPI from MG132-fed flies; type: in vivo, Drosophila melanogaster; settings: flies fed 1 mg/mL MG132 for 24 hours at 25° C. or 29° C.; immunoprecipitation and Western blot
Experimental: Conjugated anti-TPI resin was prepared with TPI antibody (FL249, Santa Cruz Biotechnology) and the Pierce co-immunoprecipitation kit. Homozygous TPI^sugarkill flies were fed 1 mg/mL MG132 (Sigma) on 10% sucrose for 24 hours at 25° C. or 29° C. Following incubation, flies were homogenized using a mechanical homogenizer in Pierce co-immunoprecipitation lysis buffer with Protease Inhibitor Mini-Tablets (Pierce), MG132 (0.1 mg/mL, Sigma) and NEM (1 μM, Sigma). Protein concentration was determined by BCA assay (Pierce). The lysates (2 mg) were incubated on a rotator overnight at 4° C. with 100 μl of the conjugated anti-TPI resin. The columns were washed three times with 200 μL of Pierce IP wash buffer with Protease Inhibitor Mini-Tablets (Pierce), MG132 (0.1 mg/mL) and 1 μM NEM. A bead only control provided by the Pierce IP kit served as a negative control. The samples were eluted into 2×SDS-PAGE sample buffer (130 mM Tris (pH 6.8), 4% SDS, 4% beta-mercaptoethanol, 20% glycerol, 0.1% bromophenol blue) with Protease Inhibitor Mini-Tablets (Pierce), MG132 (0.1 mg/mL, Sigma) and NEM (1 μM, Sigma). Western blots were conducted as described above with the exception that the blots were boiled in distilled water for 30 minutes prior to blocking. The antibody used for detection of ubiquitin was anti-ubiquitin (1:1000, 6C1 mouse Santa Cruz Biotechnology). […]

[2] = system: TPI^E105D-GFP fusion protein; assay: HEK293 TPI^E105D-GFP high content assay (GFP intensity per cell); type: cell-based, human; settings: for TPI^E105D-GFP fluorescence (in words): prescreen of putative protein stabilizing compounds, 48 hours; for repeat of hit activity in every condition: NIH Clinical Collection, 10 μM and 1 μM, 24 hours and 48 hours; for hit call in LOPAC screen: 10 μM, 48 hour condition
Experimental: HEK293 cells expressing a mutant (E105D) TPI-GFP fusion protein were created using the Flp-In System (Invitrogen, Catalog #K6010-01 and K6010-02) following the manufacturer's protocol. Briefly, a host cell line expressing the transfected Flp-In target site vector, pFRT/lacZeo, was obtained following zeocin resistance selection. TPI^E105D-GFP fusion construct was cloned into the pcDNA 5/FRT expression vector. Co-transfection of 0.1 μg of the pcDNA 5/FRT construct (390 ng/μL) and 0.9 μg of the Flp recombinase expression vector (pOG44, 127 ng/μL) into the Flp-In host cell line was performed with 3.75 μL Lipofectamine 2000 reagent (Invitrogen). A hygromycin dose response was performed to determine the minimum concentration of hygromycin B required to kill untransfected host cells. […] Expression of the TPI^E105D-GFP fusion protein was verified via Western blot. The cells were cultured using standard methods (37° C., 5% CO2) in normal media (DMEM with 10% serum, 100 U penicillin/100 μg streptomycin/ml (Lonza)). To document subcellular localization of mutant GFP-tagged TPI, nuclei were stained with Hoechst 33342 and imaged on an ImageXpress Ultra confocal high content reader in the UV and GFP channel, respectively. A z-series of images (60× objective, 90 planes, 0.3 μm z-steps) was acquired in both channels, and the color combined stack subjected to 3D reconstruction in MetaXpress. A single slice of the reconstructed image was chosen to illustrate the phenotype of mutant TPI-GFP expression.
HEK293 TPI^E105D-GFP cells were plated (50,000 cells/well in collagen-coated 96-well thin-bottom microplates and allowed to attach overhight. Cells were treated with four point, two-fold gradients of 5× treatment solutions of test agents (6 replicates per condition). The final concentration of vehicle was 0.2%. After 48 hours in culture, cells were preincubated with propidium iodide (PI) for 30 minutes and imaged live in the GFP and Texas Red channels on an ImageXpress Ultra high content reader (Molecular Devices) using a 20× objective Images were analyzed with the multiwavelength cell scoring application using GFP to define and enumerate cells. The integrated GFP intensity per cell was used to quantify mutant TPI expression; the number of cells was used as a proxy for growth inhibition and/or cell loss; and the percentage of cells that exceeded a threshold for PI based on vehicle-treated controls was used to measure acute toxicity (necrosis).
Assay ready daughter plates of the NIH Clinical Collection containing 2 μL of a 1 mM DMSO stock were reconstituted in DMEM (60 μL) to yield a 30 μM intermediate treatment concentration. 60 μl of DMSO (3%) was added to columns 1 and 24, and 60 μL of 600 nM luminespib was added to columns 2 and 23 to serve as negative and positive controls, respectively. Aliquots (15 μl) were transferred directly to cells in 384 well plates using an Agilent Bravo liquid handling robot (final concentration in assay, 10 μM). For the 1 μM condition, an aliquot of the 30 μM treatment solution was diluted 1:10 and controls added as above. Aliquots (15 μl) were transferred to cells to yield a […] final concentration. Plates were centrifuged for 30 seconds at 200×g and incubated at 37° C. After 24 hours, plates were imaged live in the GFP channel and returned to the incubator; after 48 hours cells were stained with PI, imaged live in the GFP and PI channels, and analyzed as described above. The LOPAC library was screened using the same procedure except that only the 10 μM, 48 hour condition was used.
A pilot library screen was performed using the NIH Clinical Collection in the HEK TPI^E105D-GFP cell line. The NIH Clinical Collection maintained at the UPDDI contains 446 FDA approved drugs and small molecules that have a history of use in human clinical trials. The collections were assembled through the Molecular Libraries and Imaging Initiative as part of its mission to enable the use of compound screens in biomedical research. […]

[3] = system: TPI; assay: High-content analysis of TPI levels in patient fibroblasts by immunocytochemistry; type: cell-based, human; settings: 48 hours
Experimental: (§1) FB303 cells were plated (1000/well) in a 384 well collagen-coated microplate. Cells were treated with vehicle (DMSO) or ten-point, two-fold gradients of test compounds for 48 hours in quadruplicates. Cells were fixed with 4% formaldehyde and immunostained with an anti-TPI antibody (Santa Cruz sc-30145) followed by a Cy3-conjugated goat anti-rabbit secondary (Jackson Immunoresearch). Nuclei were counterstained with Hoechst 33342 Images were acquired on an OPERA Phenix high-content imager (20× air objective, widefield, 4 fields/well) and analyzed for total cellular GFP intensity (HEK and U2OS) or total cellular Cy3 intensity (FB303) using Harmony 5.0 image analysis software (Perkin Elmer).

[4] = system: TPI^E105D-GFP; assay: High-content analysis in U2OS TPI^E105D-GFP cells; type: cell-based, human; settings: 48 hours
Experimental: U2OS osteosarcoma cells (ATCC HTB-96) engineered to express the mutant (E105D) TN-GFP protein were generated using the identical method described above for HEK cells and maintained in McCoy's 5A medium (ThermoFisher 16600082).
as §1

[5] = system: TPI^E105D-GFP fusion protein; assay: HEK293 TPI^E105D-GFP high content assay (GFP intensity per cell); type: cell-based, human; settings: fresh repurchased samples, ten-point twofold dose-response
[6] = Luo et al. 2015; said to correlate with concentrations needed to increase TPI^E105D-GFP in HEK cells; cited from earlier work

CC(C)C[C@@H](C=O)NC(=O)[C@H](CC(C)C)NC(=O)[C@H](CC(C)C)NC(=O)OCc1ccccc1 [MG132] (Cbz-Leu-Leu-Leu-aldehyde)
polyubiquitinated TPI^sugarkill signal [1]: accumulation of polyubiquitinated signal

C[C@@H]1C[C@@H]([C@H](O)CC2CC(=O)NC(=O)C2)C(=O)[C@@H](C)C1 [cycloheximide]
TPI^E105D-GFP fluorescence (in words) [2]: significant increase

Cc1[nH]c(=O)c(C#N)cc1-c1ccncc1 [milrinone]
repeat of hit activity in every condition [2]: repeated in every condition

C[C@H]1[C@H](OC(=O)CCC(=O)O)O[C@@H]2O[C@@]3(C)CC[C@H]4[C@H](C)CC[C@@H]1[C@@]24OO3 [artesunate, 4-oxo-4-[[(1R,4S,5R,8S,9R,10S,12R,13R)-1,5,9-trimethyl-11,14,15,16-tetraoxatetracyclo[10.3.1.0^4,13.0^8,13]hexadecan-10-yl]oxy]butanoic acid]
dose-response confirmation of activity, total anti-TPI fluorescence [3]: confirmed activity
dose-response confirmation of activity, total GFP levels per cell [4]: confirmed activity
repeat of hit activity in every condition [2]: repeated in every condition

Oc1ccc(/C=C/c2cc(O)cc(O)c2)cc1 [resveratrol, 3,5,4′-trihydroxy-trans-stilbene]
concentration dependence of TPI^E105D-GFP increase [5]: concentration-dependent increases
dose-response confirmation of activity, total anti-TPI fluorescence [3]: confirmed activity
dose-response confirmation of activity, total GFP levels per cell [4]: confirmed activity
hit call in LOPAC screen [2]: positive hits

CC(C)C[C@H](NC(=O)[C@H](Cc1ccccc1)NC(=O)c1cnccn1)B(O)O [bortezomib]
TPI^E105D-GFP fluorescence (in words) [2]: significant increase

COc1ccccc1OCCNCC(O)COc1cccc2[nH]c3ccccc3c12 (stereo not shown) [carvedilol]
repeat of hit activity in every condition [2]: repeated in every condition

O=C(O)C[C@H](O)C[C@H](O)/C=C/c1c(C2CC2)nc2ccccc2c1-c1ccc(F)cc1 [itavastatin]
peak plasma levels in humans [6]: 0.55 µM
concentration dependence of TPI^E105D-GFP increase [5]: concentration-dependent increases
repeat of hit activity in every condition [2]: repeated in every condition

CC[C@H](C)C(=O)O[C@H]1CCC=C2C=C[C@H](C)[C@H](CC[C@@H]3C[C@@H](O)CC(=O)O3)[C@H]21 [mevastatin]
hit call in LOPAC screen [2]: positive hits
